These are literature values, as cited in patent US7294332B2, “Combination therapy (temozolomide and α-IFN) for advanced cancer” (Schering Corporation, priority 1995, dated 2007).

Series [1] concerns advanced melanoma. Conditions: patients with advanced melanoma; Journal of Clinical Oncology, Vol 13, No. 4 (April), 1995.
Series [2] concerns advanced melanoma. Conditions: patients having advanced melanoma; Newlands ES, et al. Br J Cancer 65 (2), 1992.

`Cn1nnc2c(C(N)=O)ncn2c1=O` [Temozolomide, 3,4-dihydro-3-methyl-4-oxoimidazo-[5,1-d]1,2,3,4-tetrazin-8-carboximide]: the “clinical response achieved, % of patients” value in the series on advanced melanoma [1] is reported as 21%. In the series with advanced melanoma [2], the “clinical responses achieved, % of patients” value is reported as 17%.
